What follows are compounds tested against BRD4 (Homo sapiens, UniProt O60885) (assay: Time resolved fluorescence resonance energy transfer (TR-FRET) binding assay, bromodomain BRD4). Details: one of the FRET assays described; read-out: FRET BRD4 IC50.
`Cc1nnn(C)c1-c1cnc2c3ccc(N4CCN(S(=O)(=O)N(C)C)CC4)nc3n([C@H](c3ccccc3F)C3CCOCC3)c2c1` [Example 269, 4-[5-(Dimethyl-1H-1,2,3-triazol-5-yl)-8-[(S)-(2-fluorophenyl)(oxan-4-yl)methyl]-3,8,10-triazatricyclo[7.4.0.0^2,^7]trideca-1(13),2(7),3,5,9,11-hexaen-11-yl]-N,N-dimethylpiperazine-1-sulfonamide] was tested, and the IC50 was < 1 nM. In the case of `COc1nccc2c3ncc(-c4c(C)nnn4C)cc3n(C(c3cccc(F)c3F)C3CCOCC3)c12` (single isomer, unassigned) [Example 23, 8-[(2,3-Difluorophenyl)(oxan-4-yl)methyl]-5-(dimethyl-1H-1,2,3-triazol-5-yl)-10-methoxy-3,8,11-triazatricyclo[7.4.0.0^2,^7]trideca-1(13),2(7),3,5,9,11-hexaene], the IC50 is reported as < 1500 nM. With `[2H]C([2H])([2H])c1nnn(C)c1-c1cnc2c3c(OCC(C)C)ncc(S(C)(=O)=O)c3n([C@H](c3ccccc3)C3CCOCC3)c2c1` [Example 108, 10-Methanesulfonyl-5-[4-(^2H3)methyl-1-methyl-1H-1,2,3-triazol-5-yl]-13-(2-methylpropoxy)-8-[(S)-oxan-4-yl(phenyl)methyl]-3,8,12-triazatricyclo[7.4.0.0^2,^7]trideca-1(13),2(7),3,5,9,11-hexaene] the IC50 was < 10 nM. In the case of `Cc1nnn(C)c1-c1cnc2c3ccc(S(N)(=O)=O)nc3n([C@H](c3ccccc3)C3CCOCC3)c2c1` [Example 195, 5-(Dimethyl-1H-1,2,3-triazol-5-yl)-8-[(S)-oxan-4-yl(phenyl)methyl]-3,8,10-triazatricyclo[7.4.0.0^2,^7]trideca-1(9),2(7),3,5,10,12-hexaene-11-sulfonamide], the IC50 is reported as < 10 nM. With `Cc1nnn(C)c1-c1cnc2c3ccc(N4CCN(C(=O)C5CC5)CC4)nc3n([C@H](c3ccc(F)cc3)C3CCOCC3)c2c1` [Example 258, 11-(4-Cyclopropanecarbonylpiperazin-1-yl)-5-(dimethyl-1H-1,2,3-triazol-5-yl)-8-[(S)-(4-fluorophenyl)(oxan-4-yl)methyl]-3,8,10-triazatricyclo[7.4.0.0^2,^7]trideca-1(13),2(7),3,5,9,11-hexaene] the IC50 was < 10 nM. In the case of `Cc1nnn(C)c1-c1cnc2c3cnc(Cl)cc3n([C@H](c3ccc(Cl)cn3)C3CCOCC3)c2c1` [Example 323], the IC50 is reported as < 10 nM. `COc1nccc2c3ncc(-c4c(C)nnn4C)cc3n(C(c3cccc(F)c3F)C3CCOCC3)c12` (single isomer, unassigned) [Example 22, 8-[(2,3-Difluorophenyl)(oxan-4-yl)methyl]-5-(dimethyl-1H-1,2,3-triazol-5-yl)-10-methoxy-3,8,11-triazatricyclo[7.4.0.0^2,^7]trideca-1(13),2(7),3,5,9,11-hexaene] was tested, and the IC50 was < 10 nM. In the case of `Cc1nnn(C)c1-c1cnc2c3ccnc(Cl)c3n([C@H](c3ccccc3F)C3CCOCC3)c2c1` [Example 5, 10-Chloro-5-(dimethyl-1H-1,2,3-triazol-5-yl)-8-[(S)-(2-fluorophenyl)(oxan-4-yl)methyl]-3,8,11-triazatricyclo[7.4.0.0^2,^7]trideca-1(13),2(7),3,5,9,11-hexaene], the IC50 is reported as < 10 nM. For `Cc1nnn(C)c1-c1cnc2c3cnc(-c4c(C)nnn4C)nc3n([C@H](c3ccccc3)C3CCOCC3)c2c1` [Example 155, 5,11-Bis(dimethyl-1H-1,2,3-triazol-5-yl)-8-[(S)-oxan-4-yl(phenyl)methyl]-3,8,10,12-tetraazatricyclo[7.4.0.0^2,^7]trideca-1(9),2(7),3,5,10,12-hexaene], the IC50 was < 10 nM. With `[2H]C([2H])([2H])c1nnn(C)c1-c1cnc2c3c(OC)nc(N4CCC(F)(F)CC4)cc3n([C@H](c3ccccc3)C3CCOCC3)c2c1` [Example 343, 11-(4,4-Difluoropiperidin-1-yl)-13-methoxy-5-[4-(^2H3)methyl-1-methyl-1H-1,2,3-triazol-5-yl]-8-[(S)-oxan-4-yl(phenyl)methyl]-3,8,12-triazatricyclo[7.4.0.0^2,^7]trideca-1(13),2(7),3,5,9,11-hexaene] the IC50 was < 1 nM. `[2H]C([2H])([2H])c1nnn(C)c1-c1cnc2c3ccc(-c4c(C([2H])([2H])[2H])nnn4C)nc3n(C(c3ccccc3)C3CCC(F)(F)CC3)c2c1` (stereo not drawn) [Example 261, 8-[(4,4-Difluorocyclohexyl)(phenyl)methyl]-5,11-bis[4-(^2H3)methyl-1-methyl-H-1,2,3-triazol-5-yl]-3,8,10-triazatricyclo[7.4.0.0^2,^7]trideca-1(13),2(7),3,5,9,11-hexaene] was tested, and the IC50 was < 10 nM. In the case of `[2H]C([2H])([2H])c1nnn(C)c1-c1cnc2c3c(OC(C)C)ncc(S(C)(=O)=O)c3n([C@H](c3ccccc3F)C3CCOCC3)c2c1` [Example 80, 8-[(S)-(2-Fluorophenyl)(oxan-4-yl)methyl]-10-methanesulfonyl-5-[4-(^2H3)methyl-1-methyl-1H-1,2,3-triazol-5-yl]-13-(propan-2-yloxy)-3,8,12-triazatricyclo[7.4.0.0^2,^7]trideca-1(13),2(7),3,5,9,11-hexaene], the IC50 is reported as < 1 nM. For “2-{11-Chloro-5-[4-(^2H3)methyl-1-methyl-1H-1,2,3-triazol-5-yl]-8-[(S)-oxan-4-yl(phenyl)methyl]-3,8,12-triazatricyclo[7.4.0.0^2,^7]trideca-1(13),2(7),3,5,9,11-hexaen-13-yl}propan-2-ol [Example 293]”, the IC50 was < 10 nM. In the case of `COc1ncc(S(=O)(=O)CC2(O)COC2)c2c1c1ncc(-c3c(C)nnn3C)cc1n2[C@H](c1ccccc1)C1CCOCC1` [Example 106, 3-({[5-(Dimethyl-1H-1,2,3-triazol-5-yl)-13-methoxy-8-[(S)-oxan-4-yl(phenyl)methyl]-3,8,12-triazatricyclo[7.4.0.0^2,^7]trideca-1(13),2(7),3,5,9,11-hexaen-10-yl]sulfonyl}methyl)oxetan-3-ol], the IC50 is reported as < 10 nM. For `Cc1noc(C)c1-c1cnc2c3c(NS(=O)(=O)C4CC4)ncc(S(C)(=O)=O)c3n([C@H](c3ccccc3)C3CCOCC3)c2c1` [Example 98, N-[5-(Dimethyl-1,2-oxazol-4-yl)-10-methanesulfonyl-8-[(S)-oxan-4-yl(phenyl)methyl]-3,8,12-triazatricyclo[7.4.0.0^2,^7]trideca-1(13),2(7),3,5,9,11-hexaen-13-yl]cyclopropanesulfonamide], the IC50 was < 10 nM. For `[2H]C([2H])([2H])c1nnn(C)c1-c1cnc2c3c(OC)nc(Cl)cc3n([C@H](c3ncccc3F)C3CCOCC3)c2c1` [Example 305, 11-Chloro-8-[(S)-(3-fluoropyridin-2-yl)(oxan-4-yl)methyl]-13-methoxy-5-[4-(^2H3)methyl-1-methyl-1H-1,2,3-triazol-5-yl]-3,8,12-triazatricyclo[7.4.0.0^2,^7]trideca-1(9),2(7),3,5,10,12-hexaene], the IC50 was < 10 nM. With `Cc1nnn(C)c1-c1cnc2c3ccc(S(=O)(=O)N4CCOCC4)nc3n([C@H](c3ccccc3)C3CCOCC3)c2c1` [Example 197, 5-(Dimethyl-1H-1,2,3-triazol-5-yl)-11-(morpholine-4-sulfonyl)-8-[(S)-oxan-4-yl(phenyl)methyl]-3,8,10-triazatricyclo[7.4.0.0^2,^7]trideca-1(9),2(7),3,5,10,12-hexaene] the IC50 was < 10 nM. In the case of `[2H]C([2H])([2H])c1nnn(C)c1-c1cnc2c3ccc(NCCc4nnn[nH]4)nc3n([C@H](c3ccccc3)C3CCOCC3)c2c1` [Example 295, 5-[4-(^2H3)Methyl-1-methyl-1H-1,2,3-triazol-5-yl]-8-[(S)-oxan-4-yl(phenyl)methyl]-N-[2-(1H-1,2,3,4-tetrazol-5-yl)ethyl]-3,8,10-triazatricyclo[7.4.0.0^2,^7]trideca-1(9),2(7),3,5,10,12-hexaen-11-amine], the IC50 is reported as < 1 nM. With `Cc1nnn(C)c1-c1cnc2c3ccc(N4CC(C)S(=O)(=O)C(C)C4)nc3n([C@H](c3ccccc3)C3CCOCC3)c2c1` (single isomer, unassigned) [Example 190] the IC50 was < 1 nM. `[2H]C([2H])([2H])c1nnn(C)c1-c1cnc2c3ccc(NCCS(C)(=O)=O)nc3n([C@H](c3ccccc3)C3CCOCC3)c2c1` [Example 189, N-(2-Methanesulfonylethyl)-5-[4-(^2H3)methyl-1-methyl-1H-1,2,3-triazol-5-yl]-8-[(S)-oxan-4-yl(phenyl)methyl]-3,8,10-triazatricyclo[7.4.0.0^2,^7]trideca-1(9),2(7),3,5,10,12-hexaen-11-amine] was tested, and the IC50 was < 1 nM. In the case of `Cc1nnn(C)c1-c1cnc2c3ccc(S(C)(=O)=O)nc3n([C@H](c3ccccc3F)C3CCOCC3)c2c1` [Example 221, 5-(Dimethyl-1H-1,2,3-triazol-5-yl)-8-[(S)-(2-fluorophenyl)(oxan-4-yl)methyl]-11-methanesulfonyl-3,8,10-triazatricyclo[7.4.0.0^2,^7]trideca-1(13),2(7),3,5,9,11-hexaene], the IC50 is reported as < 10 nM. `Cc1nnn(C)c1-c1cnc2c3cncc(S(C)(=O)=O)c3n(C(c3ccccc3)C3CCC(F)(F)CC3)c2c1` (stereo not drawn) [Example 290, 8-[(4,4-Difluorocyclohexyl)(phenyl)methyl]-5-(dimethyl-1H-1,2,3-triazol-5-yl)-10-methanesulfonyl-3,8,12-triazatricyclo[7.4.0.0^2,^7]trideca-1(13),2(7),3,5,9,11-hexaene] was tested, and the IC50 was < 1 nM. `Cc1noc(C)c1-c1cnc2c3ccc(N4CCS(=O)(=O)CC4)nc3n([C@H](c3ccccc3)C3CCOCC3)c2c1` [Example 209, 4-[5-(Dimethyl-1,2-oxazol-4-yl)-8-[(S)-oxan-4-yl(phenyl)methyl]-3,8,10-triazatricyclo[7.4.0.0^2,^7]trideca-1(9),2(7),3,5,10,12-hexaen-11-yl]-1λ^6,4-thiomorpholine-1,1-dione] was tested, and the IC50 was < 10 nM. `[2H]C([2H])([2H])c1nnn(C)c1-c1cnc2c3c(OCCO)ncc(S(C)(=O)=O)c3n([C@H](c3ccccc3F)C3CCOCC3)c2c1` [Example 63, 2-({8-[(S)-(2-Fluorophenyl)(oxan-4-yl)methyl]-10-methanesulfonyl-5-[4-(^2H3)methyl-1-methyl-1H-1,2,3-triazol-5-yl]-3,8,12-triazatricyclo[7.4.0.0^2,^7]trideca-1(13),2(7),3,5,9,11-hexaen-13-yl}oxy)ethan-1-ol] was tested, and the IC50 was < 1 nM.

Source: patent publication US9725449B2, “Tricyclic compounds as anticancer agents” (BRISTOL-MYERS SQUIBB COMPANY, priority 2015, dated 2017)
